Drawing on ChEMBL document CHEMBL4680156, “Discovery of novel pyrido-pyrrolidine hybrid compounds as alpha-glucosidase inhibitors and alternative agent for control of type 1 diabetes” (Eur J Med Chem, 2020), this text covers IC50 and inhibition for 31 compounds.

One test concerns the target T1, Alpha-mannosidase (Canavalia ensiformis, UniProt C0HJB3).
T1 sequence (C0HJB3 whole entry): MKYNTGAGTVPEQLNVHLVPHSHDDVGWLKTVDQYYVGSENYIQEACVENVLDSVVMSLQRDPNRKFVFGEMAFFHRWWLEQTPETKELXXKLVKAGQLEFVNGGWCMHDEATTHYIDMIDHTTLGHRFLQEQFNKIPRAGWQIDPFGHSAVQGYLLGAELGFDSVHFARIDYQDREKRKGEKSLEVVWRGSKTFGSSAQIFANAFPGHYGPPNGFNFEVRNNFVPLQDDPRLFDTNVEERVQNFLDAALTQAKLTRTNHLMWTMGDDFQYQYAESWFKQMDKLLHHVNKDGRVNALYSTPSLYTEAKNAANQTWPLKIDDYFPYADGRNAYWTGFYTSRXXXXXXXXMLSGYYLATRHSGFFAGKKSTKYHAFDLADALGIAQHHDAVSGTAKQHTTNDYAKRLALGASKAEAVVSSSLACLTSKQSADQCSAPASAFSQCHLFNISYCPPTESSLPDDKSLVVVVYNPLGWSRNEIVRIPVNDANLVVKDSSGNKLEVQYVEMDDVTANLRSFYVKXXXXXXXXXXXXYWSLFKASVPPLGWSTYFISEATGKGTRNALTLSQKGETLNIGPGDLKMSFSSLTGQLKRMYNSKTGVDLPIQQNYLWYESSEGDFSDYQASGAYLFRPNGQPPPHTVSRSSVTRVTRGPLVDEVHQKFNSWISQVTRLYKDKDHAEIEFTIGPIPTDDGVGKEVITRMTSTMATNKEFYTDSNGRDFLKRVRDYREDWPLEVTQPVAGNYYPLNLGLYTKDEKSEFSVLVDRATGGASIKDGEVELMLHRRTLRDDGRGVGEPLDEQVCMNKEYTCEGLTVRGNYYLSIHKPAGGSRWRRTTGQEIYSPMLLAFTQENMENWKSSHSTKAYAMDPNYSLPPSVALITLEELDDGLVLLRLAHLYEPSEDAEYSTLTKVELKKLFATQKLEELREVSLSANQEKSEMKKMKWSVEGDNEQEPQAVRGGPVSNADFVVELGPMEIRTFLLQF
In words: Inhibition of jack bean alpha-mannosidase using […] as substrate incubated for 10 mins by spectrophotometric method.

Another test addresses Maltase-glucoamylase (Homo sapiens, UniProt O43451). In words: Inhibition of alpha-glucosidase (unknown origin) using sucrose as substrate incubated for 30 mins.
Test [1] has as its target T2, Tissue alpha-L-fucosidase (Bos taurus, UniProt Q2KIM0).
T2 sequence (Q2KIM0 whole entry): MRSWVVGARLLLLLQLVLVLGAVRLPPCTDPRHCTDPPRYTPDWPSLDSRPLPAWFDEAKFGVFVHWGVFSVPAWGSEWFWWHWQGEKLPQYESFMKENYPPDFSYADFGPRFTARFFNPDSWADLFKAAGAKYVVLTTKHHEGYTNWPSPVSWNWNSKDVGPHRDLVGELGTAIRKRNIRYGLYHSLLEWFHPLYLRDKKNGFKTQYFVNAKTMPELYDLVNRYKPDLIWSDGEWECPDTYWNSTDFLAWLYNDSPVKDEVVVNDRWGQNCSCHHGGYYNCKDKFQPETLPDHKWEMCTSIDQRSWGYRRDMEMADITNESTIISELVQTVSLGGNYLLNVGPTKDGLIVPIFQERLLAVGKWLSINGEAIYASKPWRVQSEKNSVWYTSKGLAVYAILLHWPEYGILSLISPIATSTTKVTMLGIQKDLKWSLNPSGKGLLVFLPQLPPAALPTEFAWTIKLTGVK
In words: Inhibition of bovine kidney alpha-fucosidase using […] as substrate incubated for 10 mins by spectrophotometric method.

Test [2] is described as follows: Inhibition of Saccharomyces cerevisiae alpha-glucosidase using PNPG as substrate incubated for 10 mins by spectrophotometric method.
For test [3], the target named is T3, Alpha-mannosidase (Canavalia ensiformis) (UniProt C0HJB3).
T3 sequence (whole entry): T1 sequence (C0HJB3 whole entry)
In words: Inhibition of jack bean alpha-mannosidase at 1 mM using […] as substrate incubated for 10 mins by spectrophotometric method.

Test [4] addresses T4, Tissue alpha-L-fucosidase (Bos taurus) (UniProt Q2KIM0).
T4 sequence (whole entry): T2 sequence (Q2KIM0 whole entry)
In words: Inhibition of bovine kidney alpha-fucosidase at 1 mM using […] as substrate incubated for 10 mins by spectrophotometric method.

The next test relates to Saccharomyces cerevisiae. Kind of test: Inhibition of Saccharomyces cerevisiae alpha-glucosidase at 1 mM using PNPG as substrate incubated for 10 mins by spectrophotometric method.
Test [5] can be described thus: Inhibition of Saccharomyces cerevisiae alpha-glucosidase using maltose as substrate preincubated for 5 mins followed by substrate addition and measured after 15 mins by LC-TQ-MS/MS analysis.

Chain of Maltase-glucoamylase (O43451 whole entry): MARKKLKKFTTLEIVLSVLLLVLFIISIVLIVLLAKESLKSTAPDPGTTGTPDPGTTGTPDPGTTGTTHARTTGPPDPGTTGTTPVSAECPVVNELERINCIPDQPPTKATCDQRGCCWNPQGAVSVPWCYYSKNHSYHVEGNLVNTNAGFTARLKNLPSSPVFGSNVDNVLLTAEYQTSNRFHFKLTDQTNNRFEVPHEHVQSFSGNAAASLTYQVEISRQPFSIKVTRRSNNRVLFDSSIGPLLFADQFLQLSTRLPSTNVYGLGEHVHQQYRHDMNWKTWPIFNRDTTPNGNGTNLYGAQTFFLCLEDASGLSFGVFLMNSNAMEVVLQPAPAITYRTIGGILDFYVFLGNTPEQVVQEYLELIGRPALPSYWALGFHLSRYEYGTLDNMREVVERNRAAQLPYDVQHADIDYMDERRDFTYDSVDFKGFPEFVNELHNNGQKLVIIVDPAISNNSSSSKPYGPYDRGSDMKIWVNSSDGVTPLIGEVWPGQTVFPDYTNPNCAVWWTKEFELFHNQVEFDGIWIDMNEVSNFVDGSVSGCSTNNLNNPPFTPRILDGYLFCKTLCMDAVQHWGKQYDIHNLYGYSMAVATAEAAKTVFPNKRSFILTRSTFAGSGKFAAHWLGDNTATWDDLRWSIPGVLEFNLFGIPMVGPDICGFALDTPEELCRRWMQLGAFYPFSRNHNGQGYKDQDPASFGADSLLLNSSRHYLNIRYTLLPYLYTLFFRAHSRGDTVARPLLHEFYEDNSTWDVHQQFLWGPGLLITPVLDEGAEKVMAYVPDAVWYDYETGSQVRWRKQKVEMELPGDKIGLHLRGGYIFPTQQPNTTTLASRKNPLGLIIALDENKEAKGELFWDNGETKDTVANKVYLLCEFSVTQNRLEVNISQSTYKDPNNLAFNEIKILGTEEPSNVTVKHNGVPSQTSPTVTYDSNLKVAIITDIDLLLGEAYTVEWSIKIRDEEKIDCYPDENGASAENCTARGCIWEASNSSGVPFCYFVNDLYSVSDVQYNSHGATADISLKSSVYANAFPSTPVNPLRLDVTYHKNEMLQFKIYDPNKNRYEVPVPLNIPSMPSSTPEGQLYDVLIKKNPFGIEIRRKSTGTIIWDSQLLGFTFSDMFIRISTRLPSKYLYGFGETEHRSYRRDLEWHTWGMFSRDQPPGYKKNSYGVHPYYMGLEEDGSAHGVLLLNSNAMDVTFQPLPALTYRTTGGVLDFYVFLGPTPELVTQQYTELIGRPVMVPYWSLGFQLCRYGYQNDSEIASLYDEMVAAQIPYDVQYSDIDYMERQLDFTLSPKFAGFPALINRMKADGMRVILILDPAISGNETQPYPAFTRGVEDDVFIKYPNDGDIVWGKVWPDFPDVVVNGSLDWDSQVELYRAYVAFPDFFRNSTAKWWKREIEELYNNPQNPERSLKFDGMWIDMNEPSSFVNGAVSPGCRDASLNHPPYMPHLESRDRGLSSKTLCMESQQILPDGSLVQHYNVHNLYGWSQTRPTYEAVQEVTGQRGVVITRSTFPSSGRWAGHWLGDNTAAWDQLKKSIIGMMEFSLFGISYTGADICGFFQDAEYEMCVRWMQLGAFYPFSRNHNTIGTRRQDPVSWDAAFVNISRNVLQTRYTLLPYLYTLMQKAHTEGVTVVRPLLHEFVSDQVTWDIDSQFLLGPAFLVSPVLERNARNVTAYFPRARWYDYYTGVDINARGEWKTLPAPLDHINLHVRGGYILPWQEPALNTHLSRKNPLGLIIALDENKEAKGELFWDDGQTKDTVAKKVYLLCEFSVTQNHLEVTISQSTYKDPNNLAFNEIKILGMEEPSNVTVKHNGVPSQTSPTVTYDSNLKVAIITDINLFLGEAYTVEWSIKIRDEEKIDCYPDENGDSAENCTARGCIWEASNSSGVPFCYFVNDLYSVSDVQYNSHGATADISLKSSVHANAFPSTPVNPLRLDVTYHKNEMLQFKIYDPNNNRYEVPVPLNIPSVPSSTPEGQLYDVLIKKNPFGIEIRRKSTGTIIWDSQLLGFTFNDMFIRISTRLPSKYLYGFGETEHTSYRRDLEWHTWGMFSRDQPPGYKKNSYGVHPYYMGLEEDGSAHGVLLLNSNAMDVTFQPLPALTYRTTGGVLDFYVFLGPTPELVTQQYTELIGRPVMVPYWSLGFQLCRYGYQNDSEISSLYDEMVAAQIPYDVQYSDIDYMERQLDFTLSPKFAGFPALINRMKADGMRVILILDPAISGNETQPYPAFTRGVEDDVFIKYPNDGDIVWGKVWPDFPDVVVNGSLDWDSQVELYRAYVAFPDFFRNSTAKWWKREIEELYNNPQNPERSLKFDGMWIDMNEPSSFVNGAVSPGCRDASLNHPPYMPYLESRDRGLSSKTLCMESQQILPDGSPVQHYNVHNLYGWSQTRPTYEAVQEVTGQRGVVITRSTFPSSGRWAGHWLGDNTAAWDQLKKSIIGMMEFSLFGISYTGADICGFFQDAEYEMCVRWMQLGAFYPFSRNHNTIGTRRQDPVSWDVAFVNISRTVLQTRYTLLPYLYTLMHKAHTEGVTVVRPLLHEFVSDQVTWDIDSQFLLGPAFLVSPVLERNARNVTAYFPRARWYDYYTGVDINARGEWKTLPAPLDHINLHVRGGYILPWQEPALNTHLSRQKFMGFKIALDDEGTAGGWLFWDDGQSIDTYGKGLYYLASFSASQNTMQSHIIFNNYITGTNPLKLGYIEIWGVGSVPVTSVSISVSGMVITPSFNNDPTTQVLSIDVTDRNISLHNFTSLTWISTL

On to `COc1ccc([C@@H]2N[C@@H](CO)[C@H](O)[C@H]2O)cc1O` [L-RADICAMINE A], for which the IC50 against Alpha-mannosidase came to 28 µM; against Maltase-glucoamylase, 6.7 µM; in test [1], 41 µM; in test [2], 25.2 µM.

With `C=CC(C)(C)c1c2c(c(O)c3c(=O)c4ccc(O)c(O)c4oc13)C=CC(C)(C)O2` [MACLURAXANTHONE], the inhibition in test [3] and in test [4] was below 50% each time. In addition, the midpoint of inhibition in test [2], the IC50, lay at 62.3 µM.

As to `OC[C@@H]1N[C@@H](c2ccc(O)cc2)[C@H](O)[C@H]1O`, the IC50 against Alpha-mannosidase amounted to 28 µM; on Maltase-glucoamylase, 9.3 µM; in test [1] it was 41 µM; in test [2], 25.2 µM.

As to `C=CCn1c(/C=C2\OC(=O)c3c2cc(C)[nH]c3=O)ccc1CO`, the inhibition (in test [3]; in test [4]; with Saccharomyces cerevisiae) was below 50% in each case.

For the compound `Cc1cc2c(c(=O)[nH]1)C(=O)O/C2=C\c1ccc(CO)n1-c1ccc(Cl)cc1`, the inhibition in test [3] and in test [4] was below 50% in each case. This compound came in with an IC50 in test [2] of 21.9 µM.

As to `CC(C)=CCc1cc(C(=O)/C=C/c2ccc(O)c(O)c2)c(O)cc1O` [BROUSSOCHALCONE A], the inhibition in test [3] and in test [4] was below 50% throughout. Moreover, 101 µM corresponded to half-maximal inhibition in test [2] (IC50).

With `C=CC(C)(C)c1c(O)cc2oc3c(CC=C(C)C)c(O)c(O)cc3c(=O)c2c1O` [CUDRAXANTHONE L], the inhibition in test [3] and in test [4] was below 50% each time. This compound showed an IC50 in test [2] of 62.3 µM.

The compound `Cc1cc(O)c2c(c1)C(=O)c1cc(O)cc(O)c1C2=O` [EMODIN] returned an inhibition in test [3] below 50%. For the same compound, the IC50 in test [5] was found to be 4.12 µM; in test [1], 32 µM; in test [2] it was 26.4 µM.

With `Oc1cc(O)cc(/C=C/c2cc(O)c(O)c(O)c2)c1`, the inhibition in test [3] and in test [4] was below 50% in each case. In test [2], half-maximal inhibition (IC50) required 31.1 µM.

`Cc1ccc(S(=O)(=O)Nc2cccc(C(=O)/C=C/c3ccc(O)c(O)c3)c2)cc1`: the results for the IC50 (at Alpha-mannosidase; in test [1]; in test [2]) were 105 µM, 91 µM and 82.7 µM, respectively.

Take `Cc1ccc(S(=O)(=O)Nc2ccc(C(=O)/C=C/c3ccc(O)cc3)cc2)cc1`: the IC50 on Alpha-mannosidase was 105 µM; in test [1], 91 µM; in test [2], 82.7 µM.

Take `Cc1ccc(S(=O)(=O)Nc2cccc(C(=O)/C=C/c3ccc(O)cc3)c2)cc1`: the IC50 came to 105 µM at Alpha-mannosidase, 91 µM in test [1] and 82.7 µM in test [2].

With `OCc1ccc2n1C[C@@H](c1ccc(O)cc1)OC2`, the IC50 against Alpha-mannosidase came to 14 µM; in test [1] it was 21 µM; in test [2], 5.01 µM.

`Cc1cc2c(c(=O)[nH]1)C(=O)O/C2=C\c1ccc(CO)n1CCc1c[nH]c2ccccc12` registered an inhibition in test [3] below 50%. The results for the IC50 in test [1] and in test [2] were 12.9 µM and 4.4 µM, respectively.

With `Cc1cc2c(c(=O)[nH]1)C(=O)O/C2=C\c1ccc(CO)n1-c1ccc(F)cc1`, the inhibition in test [3] and in test [4] was below 50% throughout. Further, the concentration for half-maximal inhibition (IC50) in test [2] is 20.7 µM.

Turning to `O=C1Nc2cc(Cl)ccc2/C1=C/c1ccccc1[N+](=O)[O-]`, the results for the IC50 (against Alpha-mannosidase; in test [1]; in test [2]) were 28 µM, 65 µM and 15 µM, respectively.

`CC(C)=CCc1cc(-c2oc3cc(O)c(CC=C(C)C)c(O)c3c(=O)c2O)cc(O)c1O` [BROUSSONOL E] had an inhibition in test [3] below 50%. Besides, the values for the IC50 in test [1] and in test [2] were 89 µM and 85.9 µM, respectively.

`Cc1cc2c(c(=O)[nH]1)C(=O)O/C2=C\c1ccc(CO)n1CCc1ccccc1`: the inhibition (in test [3]; in test [4]; in the test with Saccharomyces cerevisiae) was below 50% each time.

Take `O=C1c2cccc(O)c2C(=O)c2c(O)cc(CO)cc21` [ALOE-EMODIN]: the inhibition in test [3] is below 50%. Besides, the IC50 in test [5] stood at 4.56 µM; in test [1] it was 32 µM; in test [2] it was 26.4 µM.

Consider `O=C1Nc2cc(Cl)ccc2/C1=C/c1ccc(O)c(O)c1`, for which the IC50 on Alpha-mannosidase is 28 µM; in test [1] it was 65 µM; in test [2] it was 15 µM.

On to `Cc1ccc(S(=O)(=O)Nc2ccc(C(=O)/C=C/c3ccc(O)c(O)c3)cc2)cc1`, for which the IC50 on Alpha-mannosidase came out at 105 µM; in test [1], 91 µM; in test [2], 82.7 µM.

Regarding `C#CCn1c(/C=C2\OC(=O)c3c2cc(C)[nH]c3=O)ccc1CO`, the inhibition (in test [3]; in test [4]; in the test with Saccharomyces cerevisiae) was below 50% throughout.

With `CC(C)c1ccc(/C=C2\C(=O)Nc3cc(Cl)ccc32)cc1`, the results for the IC50 (on Alpha-mannosidase; in test [1]; in test [2]) were 28 µM, 65 µM and 15 µM, respectively.

`Cc1cc2c(c(=O)[nH]1)C(=O)O/C2=C\c1ccc(CO)n1-c1ccccc1`: the IC50 was 61.4 µM at Alpha-mannosidase, 38.4 µM in test [1] and 27.4 µM in test [2].

As for `O=C(N/N=C/c1ccc(Cl)cc1)c1ccc(-c2nc3ccccc3s2)cc1`, the half-inhibitory concentration (IC50) against Alpha-mannosidase stood at 15 µM; in test [2], 20.5 µM. For the same compound, the inhibition in test [4] was below 50%.

Turning to `Cc1cc2c(c(=O)[nH]1)C(=O)O/C2=C\c1ccc(CO)n1-c1ccc(O)cc1`, the inhibition in test [3] is below 50%. The IC50 in test [1] was 21.7 µM; in test [2], 33.3 µM.

As for `Cc1cc2c(c(=O)[nH]1)C(=O)O/C2=C\c1ccc(CO)n1-c1ccccc1C`, the inhibition (in test [3]; in test [4]; with Saccharomyces cerevisiae) was below 50% each time.

`O=c1c2cc(O)c(O)cc2oc2cc(O)cc(O)c12`: the inhibition in test [3] and in test [4] was below 50% throughout. In addition, half-maximal inhibition in test [2] (IC50) required 62.3 µM.

`COc1cc(O)c2c(c1)C(=O)c1cc(C)cc(O)c1C2=O` [PHYSCION] had an inhibition in test [3] below 50%. Moreover, the values for the IC50 in test [5], in test [1] and in test [2] were 5.32 µM, 32 µM and 26.4 µM, respectively.

In test [3], `O=C(O)c1cc(O)c2c(c1)C(=O)c1cccc(O)c1C2=O` [RHEIN] displayed an inhibition below 50%. The IC50 in test [5] is 5.68 µM; in test [1] it was 32 µM; in test [2] it was 26.4 µM.

On to `Cc1cc2c(c(=O)[nH]1)C(=O)O/C2=C\c1ccc(CO)n1Cc1ccccc1`, for which the IC50 came out at 92.3 µM against Alpha-mannosidase, 51.1 µM in test [1] and 20.8 µM in test [2].
